From patent publication US20260207623A1, “USE OF ESTETROL IN HEPATICALLY IMPAIRED PATIENTS” (ESTETRA SRL, priority 2022, published 2026)

Test system: female subjects with normal hepatic function, mild, moderate or severe hepatic impairment
Test: Safety and tolerability (TEAEs, clinical laboratory, vital signs, physical examination) after a single oral dose of 20 mg E4 monohydrate in the hepatic impairment study
Format: in vivo, human
Details: single oral 20 mg
Protocol: This was a Phase 1, multi-centre, open-label, PK, and safety study of a single oral dose of 20 mg E4 monohydrate in female subjects with normal hepatic function (Group 1), mild hepatic impairment (Group 2), moderate hepatic impairment (Group 3), and severe hepatic impairment (Group 4), as defined using the Child-Pugh classification at Screening.
Safety and tolerability assessments consisted of treatment-emergent AEs (TEAEs), clinical laboratory, vital signs, physical examination, and gynecological examination. Assessments were performed in accordance with Table 2 and Table 3 in Section 2.5.1.
AEs/TEAEs were recorded after signing of the ICF until completion of the follow up visit. Any clinically significant observations in results of clinical laboratory, vital signs, or physical examinations were recorded as AEs.
A TEAE is defined as any event not present prior to administration of the study drug or any event already present that worsens in either severity or frequency following exposure to the study drug.
The below listed tests were to be performed by the local laboratories at time points indicated in the Schedule of Assessments (Table 2).
Systolic and diastolic blood pressure and pulse were recorded after the subject had been resting for at least 5 minutes in the supine position at time points indicated in the Schedule of Assessments (Table 2). These assessments were made using an automated device. Body temperature and respiratory rate were measured subsequently.
A complete physical examination consisting of a review of all body systems was performed at time points indicated in the Schedule of Assessments (Table 2). A symptom-directed physical examination could be conducted at any time per Investigator's discretion.
2.6.2.2 Evaluation of Safety and Tolerability Safety and tolerability were assessed through TEAEs, clinical laboratory, vital signs, and physical examination findings, and any other parameter that was relevant for safety assessment.
A listing of all individual AEs is provided. Summary tables of TEAEs are presented by system organ class (SOC) based on the MedDRA terminology list (preferred terms): a table containing the number of subjects experiencing AEs by hepatic function, a table containing the number of subjects experiencing SAEs by hepatic function (if applicable), a table by hepatic function and relationship, and a table by hepatic function and severity.

[1] = Mild hepatic impairment (N = 8)
[2] = Moderate hepatic impairment (N = 8)
[3] = Normal hepatic function (N = 8)

C[C@]12CC[C@@H]3c4ccc(O)cc4CC[C@H]3[C@@H]1[C@@H](O)[C@@H](O)[C@@H]2O [E4 monohydrate, estetrol monohydrate]
0 (0.0) n (%): TEAE by severity: Back pain, severity Mild [1] | TEAE by severity: Back pain, severity Moderate [1] | TEAE by severity: Diarrhea, severity Mild [1] | TEAE by severity: Diarrhea, severity Moderate [1] | TEAE by severity: Gastrointestinal disorders, severity Mild [1] | TEAE by severity: Gastrointestinal disorders, severity Moderate [1] | TEAE by severity: General disorders and administration site conditions, severity Mild [1] | TEAE by severity: Headache, severity Mild [1] | TEAE by severity: Headache, severity Moderate [1] | TEAE by severity: Musculoskeletal and connective tissue disorders, severity Moderate [1] | TEAE by severity: Nervous system disorders, severity Mild [1] | TEAE by severity: Nervous system disorders, severity Moderate [1] | TEAE by severity: Pain in extremity, severity Mild [1] | TEAE by severity: Pancreatitis, severity Moderate [1] | TEAE by severity: Pyrexia, severity Mild [1] | TEAE by severity: Renal and urinary disorders, severity Mild [1] | TEAE by severity: Renal impairment, severity Mild [1] | TEAE: Back pain [1] | TEAE: Diarrhea [1] | TEAE: Gastrointestinal disorders [1] | TEAE: General disorders and administration site conditions [1] | TEAE: Headache [1] | TEAE: Nervous system disorders [1] | TEAE: Pain in extremity [1] | TEAE: Pancreatitis [1] | TEAE: Pyrexia [1] | TEAE: Renal and urinary disorders [1] | TEAE: Renal impairment [1] | TEAE by severity: Back pain, severity Mild [2] | TEAE by severity: Back pain, severity Moderate [2] | TEAE by severity: Diarrhea, severity Moderate [2] | TEAE by severity: Gastrointestinal disorders, severity Moderate [2] | TEAE by severity: Haemarthrosis, severity Mild [2] | TEAE by severity: Hypertension, severity Mild [2] | TEAE by severity: Musculoskeletal and connective tissue disorders, severity Moderate [2] | TEAE by severity: Pancreatitis, severity Moderate [2] | TEAE by severity: Renal and urinary disorders, severity Mild [2] | TEAE by severity: Renal impairment, severity Mild [2] | TEAE by severity: Vascular disorders, severity Mild [2] | TEAE: Back pain [2] | TEAE: Haemarthrosis [2] | TEAE: Hypertension [2] | TEAE: Pancreatitis [2] | TEAE: Renal and urinary disorders [2] | TEAE: Renal impairment [2] | TEAE: Vascular disorders [2] | TEAE by severity: Back pain, severity Mild [3] | TEAE by severity: Diarrhea, severity Mild [3] | TEAE by severity: Gastrointestinal disorders, severity Mild [3] | TEAE by severity: General disorders and administration site conditions, severity Mild [3] | TEAE by severity: Haemarthrosis, severity Mild [3] | TEAE by severity: Headache, severity Mild [3] | TEAE by severity: Headache, severity Moderate [3] | TEAE by severity: Hypertension, severity Mild [3] | TEAE by severity: Musculoskeletal and connective tissue disorders, severity Mild [3] | TEAE by severity: Nervous system disorders, severity Mild [3] | TEAE by severity: Nervous system disorders, severity Moderate [3] | TEAE by severity: Pain in extremity, severity Mild [3] | TEAE by severity: Pyrexia, severity Mild [3] | TEAE by severity: Renal and urinary disorders, severity Mild [3] | TEAE by severity: Renal impairment, severity Mild [3]
4 (50.0) n (%): TEAE: Total Subjects with at Least One TEAE [2]
2 (25.0) n (%): TEAE by severity: Hypertension, severity Mild [1] | TEAE by severity: Vascular disorders, severity Mild [1] | TEAE: Hypertension [1] | TEAE: Total Subjects with at Least One TEAE [1] | TEAE: Vascular disorders [1] | TEAE by severity: Diarrhea, severity Mild [2] | TEAE by severity: Gastrointestinal disorders, severity Mild [2] | TEAE: Diarrhea [2] | TEAE: Gastrointestinal disorders [2] | TEAE: Headache [2] | TEAE: Nervous system disorders [2] | TEAE by severity: Gastrointestinal disorders, severity Moderate [3]
1 (12.5) n (%): TEAE by severity: Haemarthrosis, severity Mild [1] | TEAE by severity: Musculoskeletal and connective tissue disorders, severity Mild [1] | TEAE: Haemarthrosis [1] | TEAE: Musculoskeletal and connective tissue disorders [1] | TEAE by severity: General disorders and administration site conditions, severity Mild [2] | TEAE by severity: Headache, severity Mild [2] | TEAE by severity: Headache, severity Moderate [2] | TEAE by severity: Musculoskeletal and connective tissue disorders, severity Mild [2] | TEAE by severity: Nervous system disorders, severity Mild [2] | TEAE by severity: Nervous system disorders, severity Moderate [2] | TEAE by severity: Pain in extremity, severity Mild [2] | TEAE by severity: Pyrexia, severity Mild [2] | TEAE: General disorders and administration site conditions [2] | TEAE: Musculoskeletal and connective tissue disorders [2] | TEAE: Pain in extremity [2] | TEAE: Pyrexia [2] | TEAE by severity: Back pain, severity Moderate [3] | TEAE by severity: Diarrhea, severity Moderate [3] | TEAE by severity: Musculoskeletal and connective tissue disorders, severity Moderate [3] | TEAE by severity: Pancreatitis, severity Moderate [3]
